Reference: patent publication US11532406B2, “High specific activity preparation of F-18 tetrafluoroborate” (Mayo Foundation for Medical Education and Research, priority 2016, dated 2022)

Columns and labels:
[1] = Radiation dosimetry estimation (organ residence times, OLINDA); format: in vivo, human; conditions: for Residence Time, Bladder: bladder emptying model, 3.5 h voiding period; for Estimated absorbed radiation dose, Urinary Bladder Wall: bladder voiding interval of 3.5 h
Description: Radiation dosimetry estimates were calculated from organ residence times using OLINDA software (Ver. 1.1), assuming a bladder voiding interval of 3.5 h. Gender-specific organ masses for the conversion of SUV to disintegrations per organ per unit radioactivity administered (Bq-hr/Bq) were taken from Schlein et al. (15).
Bladder residence time was estimated by the bladder emptying model within the OLINDA software, assuming a 3.5 h bladder voiding period. The dose-critical organ is thyroid, with dose estimates of 0.26 and 0.36 mSv/MBq in males and females, respectively. […] Effective dose was higher in females (0.065 mSv/MBq) relative to males (0.036 mSv/MBq).

[2] = ~400 MBq ^18F-TFB synthesized by the conventional method, human subject; Jauregui-Osoro et al. (14); cited from earlier work

F[B-](F)(F)[18F] [^18F-TFB, ^18F-tetrafluoroborate]
Residence Time, Bone ([1]; females): 3.1 ± 0.3 min
Residence Time, Brain ([1]; females): 1.3 ± 0.2 min
Residence Time, Breast ([1]; females): 2.8 ± 0.9 min
Residence Time, Gallbladder ([1]; females): 0.09 ± 0.04 min
Residence Time, Intestines ([1]; females): 13 ± 7 min
Residence Time, Kidney ([1]; females): 3.9 ± 0.8 min
Residence Time, Liver ([1]; females): 10 ± 2 min
Residence Time, Lung ([1]; females): 2.4 ± 0.2 min
Residence Time, Muscle ([1]; females): 26 ± 8 min
Residence Time, Myocardium ([1]; females): 1.8 ± 0.3 min
Residence Time, Pancreas ([1]; females): 0.58 ± 0.08 min
Residence Time, Parotid ([1]; females): 3.3 ± 1.2 min
Residence Time, Spleen ([1]; females): 1.6 ± 0.2 min
Residence Time, Stomach ([1]; females): 24 ± 12 min
Residence Time, Thyroid ([1]; females): 2.3 ± 0.9 min
Residence Time, Bladder ([1]; females): 19 ± 4 min
Estimated absorbed radiation dose, Urinary Bladder Wall ([1]; females): 0.22 mSv/MBq
Effective Dose ([1]; males): 0.036 mSv/MBq
Estimated absorbed radiation dose, Adrenals ([1]; males): 0.008 mSv/MBq
Estimated absorbed radiation dose, Brain ([1]; males): 0.004 mSv/MBq
Estimated absorbed radiation dose, Breasts ([1]; males): 0.002 mSv/MBq
Estimated absorbed radiation dose, Gallbladder Wall ([1]; males): 0.012 mSv/MBq
Estimated absorbed radiation dose, Heart Wall ([1]; males): 0.024 mSv/MBq
Estimated absorbed radiation dose, Kidneys ([1]; males): 0.049 mSv/MBq
Estimated absorbed radiation dose, Liver ([1]; males): 0.021 mSv/MBq
Estimated absorbed radiation dose, Lower Large Intestine Wall ([1]; males): 0.009 mSv/MBq
Estimated absorbed radiation dose, Lungs ([1]; males): 0.009 mSv/MBq
Estimated absorbed radiation dose, Muscle ([1]; males): 0.008 mSv/MBq
Estimated absorbed radiation dose, Osteogenic Cells ([1]; males): 0.008 mSv/MBq
Estimated absorbed radiation dose, Pancreas ([1]; males): 0.034 mSv/MBq
Estimated absorbed radiation dose, Red Marrow ([1]; males): 0.005 mSv/MBq
Estimated absorbed radiation dose, Skin ([1]; males): 0.003 mSv/MBq
Estimated absorbed radiation dose, Small Intestine Wall ([1]; males): 0.027 mSv/MBq
Estimated absorbed radiation dose, Spleen ([1]; males): 0.033 mSv/MBq
Estimated absorbed radiation dose, Stomach Wall ([1]; males): 0.076 mSv/MBq
Estimated absorbed radiation dose, Testes ([1]; males): 0.005 mSv/MBq
Estimated absorbed radiation dose, Thymus ([1]; males): 0.004 mSv/MBq
Estimated absorbed radiation dose, Thyroid ([1]; males): 0.26 mSv/MBq
Estimated absorbed radiation dose, Total Body ([1]; males): 0.008 mSv/MBq
Estimated absorbed radiation dose, Upper Large Intestine Wall ([1]; males): 0.045 mSv/MBq
Residence Time, Bone ([1]; males): 4.6 ± 1.3 min
Residence Time, Brain ([1]; males): 1.2 ± 0.4 min
Residence Time, Gallbladder ([1]; males): 0.06 ± 0.03 min
Residence Time, Intestines ([1]; males): 5.7 ± 1.9 min
Residence Time, Kidney ([1]; males): 4.2 ± 1.2 min
Residence Time, Liver ([1]; males): 8.3 ± 3.9 min
Residence Time, Lung ([1]; males): 2.1 ± 0.7 min
Residence Time, Muscle ([1]; males): 36 ± 14 min
Residence Time, Myocardium ([1]; males): 2.1 ± 0.6 min
Residence Time, Pancreas ([1]; males): 0.7 ± 0.3 min
Residence Time, Parotid ([1]; males): 1.7 ± 1.1 min
Residence Time, Spleen ([1]; males): 1.5 ± 0.4 min
Residence Time, Stomach ([1]; males): 11 ± 5 min
Residence Time, Thyroid ([1]; males): 2.0 ± 0.7 min
Residence Time, Bladder ([1]; males): 17 ± 2 min
Estimated absorbed radiation dose, Urinary Bladder Wall ([1]; males): 0.14 mSv/MBq
estimated plasma concentration of TFB [2]: ~0.1 µM
